Where no end group is shown, it is not given here.
How the values were obtained:
BALB/c mice = assay: ELISA antibody titers in sera of immunized BALB/c mice; format: in vivo; settings: mouse; Figure 1C
Method: The peptide vaccine MVF-PD-1(92-110) was dissolved in sterile water and mixed with either ISA 720 or ISA 51 (1:1) ratio. We utilized the well-established murine colon carcinoma cell line CT26 tumor model in syngeneic BALB/c mice to evaluate the effects of vaccination previously described ([23]). Briefly, 6–8-week-old female BALB/c mice were immunized with the peptide vaccine, and 2 weeks after the third immunization, the mice were challenged with 1×10^5 CT26 colon cancer cells by subcutaneous injection (SC). The CT26 cancer cell line was maintained in the DMEM medium with 10% FBS 5% CO2 at 37 °C. […] Tumor growth was monitored daily, especially 7 days after the tumor challenge. […]
Enzyme-linked immunosorbent assay (ELISA) was performed per our lab standard procedure. […] After washing, the antibody was detected using 50 μl of 0.15% H2O2 in 24 mM of citric acid and 5 mM of the sodium phosphate buffer (pH5.2) with 0.5 mg/ml 2, […] (3-ethylbenzthiazole- 6-sulfonic acid, ABTS; Sigma, St. Louis, MO, USA) as the chromophore. […] Absorbance was read at 415 nm using an ELISA microplate reader (SPECTRAmax PLUS384; Molecular Devices, San Jose, CA, USA). The highest dilution at the cutoff absorbance 0.2 were determined as the antibody titer. […]

cynomolgus monkeys = assay: GLP repeat-dose toxicology, second monkey study No.00213519; format: in vivo, Macaca fascicularis
Method: The non-human primate studies were carried out by the Charles River Laboratories (Ashland, OH USA). All the cynomolgus monkeys (Macaca fascicularis of Chinese origin) were obtained from Charles River Laboratories (Houston, TX, USA). In brief, the animals were approximately 2–4 years old and at the body weight between 2.2 and 3.1 kg at the initial dosing. The animals were kept at the temperature between 19°C and 24°C, humidity 30%–70%, and with 12 h light and 12 h dark light cycle. The Good manufacturing practice (GMP)-manufactured vaccine was used in the non-human primate study. […] Similar to mouse and dog dosing preparation, after the emulsion was prepared, a drop test was performed on each time of dosing to confirm that the emulsion had been prepared properly. […] The dose volume was split approximately equally across two different sites; 0.5 ml of the dose was intramuscularly (IM) injected into the right posterior lateral thigh, the left dosing was injected into the left site. All the animals’ body weights were monitored weekly after receiving. After each immunization, the animal body temperature was tested 6 and 24 h post each immunization. […] The animal bleed were collected before each time of immunization to monitor the antibody titers. There were two sets of non-human primate studies conducted. The first set of monkey study No.00213515 had 24 monkeys, 12 males, and 12 females divided into 4 groups: vehicle control, low dose 0.5 mg, medium dose 2 mg, and high dose 5 mg. There were 16 monkeys (8 males and 8 females) in the second set of monkey study No. 00213519. The monkeys in the four groups were vaccinated as follows: vehicle control, low dose 25 μg, medium dose 100 μg, and high dose 250 μg.
In the second set of non-human primate study (#00213519), 16 non-human primates, cynomolgus monkeys, were used. The monkeys were immunized […] at 2-week intervals represented by 1Y, 2Y, 3Y, and 4Y at days 1, 15, 29, and 43, respectively.The bleed were collected at day 1 (pre), day 29 (2Y+2/3Y), day 43 (3Y+2 and 4Y), and day 57 (4Y+2) ( Figure 4C ). There were four groups with 4 monkeys (2 males and 2 females) in each group. Group 1 was the control group, which was treated with only ISA 720 and ddwater. […] The Immunogenicity of peptide-based vaccines in non-human primates was detected by using ELISA to detect antibody titers in the sera of both non-human primate studies ( Figures 4E, F ). The relative high antibody responses have been established in each individual cynomolgus monkey.
A slight increase in anti-APi2568 antibody titers was observed between day 29 and day 43, with no apparent reduction in titers by […].

[1] = 0, 25, 100, 250 µg/dose, days 1, 15, 29, 43, 14-day recovery

KLLSLIKGVIVHRLEGVEGPSLGAISLAPKAQIKESLRAEL [MVF-PD-1(92-110)]
immunogenicity (summary) (BALB/c mice): High immunogenicity ( Figure 1C );
effects on body weight, food consumption, body temperature, clinical pathology parameters, or organ weight (cynomolgus monkeys; [1]): No APi2568-related adverse effects
survival (cynomolgus monkeys; [1]): All monkeys survived to the scheduled necropsy
NOAEL (cynomolgus monkeys; 25, 100, 250 µg/dose IM as PD1-Vaxx, male and female cynomolgus monkeys): 100 µg/dose
safety (summary) (cynomolgus monkeys; monkey 2nd set): safe
microscopic finding in the biceps femoris IM injection site (cynomolgus monkeys; single 250 µg/dose group female monkey, 4 doses at 2-week intervals): adverse necrosis

From paper PMC9137037 (Frontiers in Oncology, 2022)
